pEC50, pIC50: −log10 of the molar value. In brackets after ≈: the same amount, converted by molar mass. Where two headings read alike, the source gives them in different places. Where a SMILES comes first, the peptide text is derived from it. The star is where a group is joined. Cbz = O=C(OCc1ccccc1)*
Assays:
PBMC = assay: MTT toxicity in the PBMC replication assay; assay type: cell-based, Human; settings: PBMC experiment; read-out: TC50 by MTT assay
Text: Results of this experiment are shown in FIG. 9 where the replication and toxicity curves for isolate 93BR021 (CCR5-tropic, group M, subtype B) are shown.

[1] = tested on: HIV RRE (Rev-dependent) reporter; assay: Rev reporter assay in 293T cells, p24 ELISA; assay type: cell-based; settings: Human immunodeficiency virus 1, HEK-293T, Table 2
Experimental: Rev reporter assay. In the Rev reporter assay, 293T cells were transfected with an HIV RRE (Rev-dependent) reporter plus a pSV2 Rev expression plasmid (Hope, T. J., et al. (1990) Proc. Natl. Acad. Sci. USA 87, 7787-7791). Compounds were incubated with the cells for 48 hours and reporter activity was assessed by p24 ELISA. Leptomycin B, an inhibitor of the Crm1 pathway that inhibits Rev-dependent export, was included as a control. The cytotoxicity of each compound was determined in parallel via MTT-based cell viability assays.

HIV-1 isolate NL4-3 = assay: Virus spreading / replication assay in Jurkat cells, p24 ELISA; assay type: cell-based; settings: Human immunodeficiency virus 1, NL43, Jurkat; Table 2; NL4-3; read-out: Jurkat HIV-1 replication assay
Experimental: Virus spreading assay. Jurkat (E6-1) cells (NIH AIDS Reagent Program) were cultured in RPMI media supplemented with 25 mM HEPES pH 7.4, 10% heat-inactivated fetal calf serum (Hyclone, Waltham Mass.), and 1% penicillin/streptomycin. 2.5×10^5 Jurkat cells were inoculated with 250 pg p24 in 250 μl media in a 96-well flat bottom polystyrene cell culture microplate. Input virus was removed after 18 hours via washing cells phosphate-buffered saline (PBS). Cells were resuspended in 250 μl of media containing compounds at the described concentrations. Cells were incubated at 37° C., 5% CO2 and supernatant samples were removed every 48 hours and replaced with fresh media containing the compounds. Viral replication was quantified using ELISA to quantify p24 viral capsid protein in the culture supernatant. Mouse monoclonal and rabbit polyclonal α-p24 antibodies used in the ELISA were obtained from the NIH AIDS Reagent Program. Toxicity was monitored using the MTT cell viability assay (Mosmann, T. (1983). J Immunol Methods 65, 55-63).

[2] = biological target: T1, HIV TAR Luciferase reporter with HIV Tat 1-72 (Human immunodeficiency virus type 1 group M subtype B, UniProt P04608); assay: Tat-hybrid transient reporter assay in 293T cells, TAR reporter; assay type: cell-based; settings: 100 nM compound; 293T transient transfection
T1 construct: 5 ng of the HIV Tat 1-72 expression construct; expressed in transfected cells; host or cells: 293T, transient transfection
Experimental: (§1) Testing the specificity of the thienopyridine compounds using the Tat-hybrid reporter system.
(§2) A 96 well plate was seeded with 10,000 293T cells. We transfected each well with 10 ng of the HIV TAR Luciferase reporter and 5 ng of the HIV Tat 1-72 expression construct or 10 ng of the HIV RRE IIB Luciferase reporter and 5 ng of the HIV Tat (1-48)-Rev 3-70 expression construct, and with 2 ng of a CMV Renilla luciferase control. Compound 4a was added to a final concentration of 3.16, 10, 31.6, and 100 nM. Each condition was performed in quadruplet. Note, it was necessary to use transient transfection assays rather than stable cell lines in order to compare the two reporter systems, although the level of inhibition conferred by the compounds in the transient assays was lower than in the cell lines. The cells were incubated for 48 hours and dual luciferase assays were performed according to the manufacturers protocol (Promega). Reporter activity was normalized against the Renilla control.

Caco-2 permeability = assay type: in vitro ADME; settings: human
Text: (§3) We next evaluated analogs 2b, 2f, 4a, and 4e in a panel of standard in vitro ADME assays to assess drug-like properties and the potential for efficacy in animals.

[3] = Aqueous solubility pH 7.4; assay type: physicochemical; settings: aqueous solution, pH 7.4, pH 7.4, aqueous buffer
Text: as §3

[4] = biological target: T2, HIV RRE IIB Luciferase reporter with HIV Tat (1-48)-Rev 3-70 (Human immunodeficiency virus type 1 group M subtype B, UniProt P04608+P04618); assay: Tat-hybrid transient reporter assay in 293T cells, RRE IIB reporter; assay type: cell-based; settings: 100 nM compound; 293T transient transfection
T2 construct: HIV Tat (1-48)-Rev 3-70 expression construct; expressed in transfected cells; host or cells: 293T, transient transfection
Experimental: as §1, §2

Rev-RRE IIB interaction [5] = biological target: T3, Rev-RRE IIB interaction (Human immunodeficiency virus type 1 group M subtype B, UniProt P04608+P04618); assay type: cell-based, HIV
T3 construct: with a fusion to HIV Rev (residues 3-70) was generated; expressed in transfected cells
Experimental: A library of approximately 4500 carboxamide-containing compounds was assembled and tested in the reporter cell line at 30 μM. Reporter cells were plated in a white 96-well plate and compounds were added to the cells using a Biomek FX robotic liquid handler (Beckman Coulter). The cells were incubated with the compound for 48 hours then assayed for luciferase activity (Promega Bright Glo). The cytotoxicity of each compound was determined in parallel via MTT-based cell viability assays.
(§4) Cells were counted and plated into white 384-well or 96-well cell-culture treated assay plates and compounds were added. After 48 hours, the cells were prepared for luminescence assays that were performed on a plate reader (Tecan Evolution or MD Analyst). The cytotoxicity of each compound was determined in parallel via MTT-based cell viability assays.
as §4, with “Tat hybrid reporter assay. […] Previously characterized thienopyridines and diaminoacridine were used as controls. Cells” for “Cells”, “384-well” for “384-well or 96-well”, “lumincescence” for “luminescence”
The RRE IIB-Rev screening cell line was plated in 384-well assay plates and compounds were added to the cells to a final concentration of 30 μM. Cells were prepared and assayed for luciferase activity. […] In parallel, MTT cell viability assays were performed to assess the toxicity of compounds and minimize the level of false positives.

[6] = tested on: HIV-1 provirus in U1 cells; assay: U1 activation (latency) assay, p24 ELISA; assay type: cell-based
Experimental: (§5) U1 activation assay. U1 cells obtained from the AIDS Research and Reference Reagent Program were maintained under standard culture conditions in RPMI 1640 supplemented with 10% fetal bovine serum (heat inactivated), 2 mM L-glutamine, 100U/mL penicillin and 100 μg/mL streptomycin. U1 cells contain an integrated copy of a phorbol ester inducible HIV-1 provirus and addition of phytohemagglutinin (PHA) to the cell culture was used to induce virus production. On the day of the assay, the U1 cells were activated with PHA and 250,000 cells were plated in 96-well plates. Test compounds were diluted in media and applied to the cells at final concentrations from 1 to 10,000 nM. Cultures were incubated for 3 days and supernatants harvested. Cell-free virus production was measured by p24 ELISA on culture supernatant. Compound toxicity was determined by MTT cell-viability assay in parallel assays.

[7] = Human liver microsome stability; assay type: in vitro ADME; settings: human liver microsomes; read-out: HLM T1/2
Text: The more lipophilic analogs 4a and 4e also appear more prone to oxidative metabolism in the presence of human liver microsomes. This is perhaps unsurprising given the presence of methoxyphenyl (4a) and benzylic methylene (4e) functions, both potential sites of oxidative metabolism.

[8] = tested on: Tat-hybrid reporter cell lines (HeLa); assay: MTT cell viability run in parallel with the Tat-hybrid assay; assay type: cell-based; settings: Table 6; at 50,000 nM
Summary of the method: (§6)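 HeLa reporter lines (Tat-hybrid) treated with compound for 48 hours, then luciferase luminescence measured. Cytotoxicity assessed in parallel by MTT viability; thienopyridines and diaminoacridine served as controls.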

[9] = as above; assay type: cell-based; settings: human, Tat-hybrid reporter cell lines (HeLa); Table 6; second 'EC50' entry of the cell, values D/E
Summary of the method: as §6

U1 cells = assay: MTT cell viability in parallel with the U1 assay; assay type: cell-based; settings: Table 6; read-out: U1 TC50
Experimental: as §5

Rev-RRE IIB interaction [10] = settings: in vitro
Text: To further validate the hits, we used an electrophoretic mobility shift assay (EMSA) to evaluate which of the three hit scaffolds were capable of disrupting the Rev-RRE IIB interaction in vitro.

[11] = tested on: Vpu-dependent degradation of Rev; assay: Vpu-dependent degradation of Rev, western blot in transfected 293T cells; assay type: cell-based, HIV; settings: co-transfection with 100 ng Vpu expression plasmid
Experimental: Vpu is a regulator of Rev. In this experiment, Rev was expressed in the presence or absence of Vpu and levels of both proteins were measured by western blot. Flag tagged Rev and either Flag tagged Vpu or Flag tagged GFP were transfected to 293T cells.
Next we tested the Vpu-dependent degradation of Rev with the proteasome inhibitor MG132.

T3 sequence (P04608 whole entry, looked up, the tested form may be a part): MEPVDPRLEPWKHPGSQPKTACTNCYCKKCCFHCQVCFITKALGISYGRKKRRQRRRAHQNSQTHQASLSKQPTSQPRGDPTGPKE
T3 sequence (P04618 whole entry, looked up, the tested form may be a part): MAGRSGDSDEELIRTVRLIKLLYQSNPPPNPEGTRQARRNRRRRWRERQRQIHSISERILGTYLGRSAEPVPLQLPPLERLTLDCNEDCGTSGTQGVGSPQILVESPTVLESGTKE
T2 sequence (P04608 whole entry, looked up): as the sequence (P04608 whole entry, looked up, the tested form may be a part) above
T2 sequence (P04618 whole entry, looked up): as the sequence (P04618 whole entry, looked up, the tested form may be a part) above
T1 sequence (P04608 1-72): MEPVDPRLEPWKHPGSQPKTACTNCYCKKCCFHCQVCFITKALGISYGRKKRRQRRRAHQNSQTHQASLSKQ

**Q.** With Cc1cn([C@H]2C[C@H](N=[N+]=[N-])[C@@H](CO)O2)c(=O)[nH]c1=O [AZT] as the compound, how does the CC50 (PBMC) read?
**A.** < 40000 nM

**Q.** With COc1ccc(-c2cncc3sc(C(N)=O)cc23)cc1 [Compound 4a, 4-(4-methoxyphenyl)thieno[2,3-c]pyridine-2-carboxamide] as the compound, how does the pEC50 [1] read?
**A.** 6.30 to 7.00

**Q.** What about the pIC50 (HIV-1 isolate NL4-3) of the same compound?
**A.** > 7.00

**Q.** What about the “expression of the HIV TAR reporter” value [2] of the same compound?
**A.** not similarly inhibited

**Q.** And the Papp (Caco-2 permeability)?
**A.** 59.4 ×10⁻⁶ cm/s

**Q.** What about the solubility [3] of the same compound?
**A.** 0.44 µM (≈ 0.125 µg/mL)

**Q.** What about the “expression of the HIV RRE IIb reporter” value [4] of the same compound?
**A.** significantly inhibited

**Q.** What about the “activity in the Tat-hybrid reporter assay” value (Rev-RRE IIB interaction [5]) of the same compound?
**A.** low-nM potency

**Q.** And the “potency in the U1 assay” value [6]?
**A.** low-nM potency

**Q.** What about the pIC50 ([6]; Human immunodeficiency virus 1, Table 2, read-out: U1 cell IC50) of the same compound?
**A.** > 7.00

**Q.** What about the half-life [7] of the same compound?
**A.** 8 min

**Q.** Which results are given for CN(C)c1ccnc2sc(C(N)=O)c(N)c12 [drawing 241]?
**A.** Tat hybrid cell viability at 50,000 nM [8]: Y (Y = 30-60%); EC50 at 48 h [9]: > 40000 nM; CC50 (U1 cells): > 40000 nM; pIC50 ([6]; Table 6, read-out: U1 IC50): < 6.30

**Q.** What does the source list for Nc1ccc2cc3ccc(N)cc3nc2c1 [3,6 diaminoacridine, reference compound]?
**A.** inhibition of the Rev-RRE interaction by EMSA (Rev-RRE IIB interaction [10]): inhibition of Rev-RRE formation is observed; activity in the Tat-hybrid reporter assay (Rev-RRE IIB interaction [5]): inhibits expression of the reporter

**Q.** For CC(C)C[C@@H](C=O)NC(=O)[C@H](CC(C)C)NC(=O)[C@H](CC(C)C)NC(=O)OCc1ccccc1 [MG132] (Cbz-Leu-Leu-Leu-aldehyde), which “effect on Vpu-dependent degradation of Rev” value [11] is on record?
**A.** blocks Vpu-dependent degradation of Rev

Source: patent US10154992B2, “Compounds and methods for treating HIV infection” (THE REGENTS OF THE UNIVERSITY OF CALIFORNIA, priority 2016, dated 2018)
